Data taken from ChEMBL document CHEMBL1201862, “PubChem BioAssay data set” (2004).
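Assay format: 96-well plates, 48-hour exposure. The concentration for 50% growth inhibition is given as GI50.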 Calls of active or inactive are those of the source. Cut-off read from the data, not from the text of the source: active = GI50 up to about 1.1 µM and inactive = higher.

How the values were obtained:
Assay in all cases: DTP human tumour cell line panel, 48 h
MDA-MB-435 = tested on: MDA-MB-435
SR = tested on: SR
A498 = tested on: A498
LOX IMVI = tested on: LOX IMVI
NCI-H522 = tested on: NCI-H522
HOP-62 = tested on: HOP-62
TK-10 = tested on: TK-10
SN12C = tested on: SN12C
OVCAR-3 = tested on: OVCAR-3
NCI-H460 = tested on: NCI-H460
SW-620 = tested on: SW-620
PC-3 = tested on: PC-3
Malme-3M = tested on: Malme-3M
SK-OV-3 = tested on: SK-OV-3
UACC-257 = tested on: UACC-257
RPMI-8226 = tested on: RPMI-8226
MOLT-4 = tested on: MOLT-4
UACC-62 = tested on: UACC-62
MDA-N = tested on: MDA-N
A549 = tested on: A549
786-0 = tested on: 786-0
CCRF-CEM = tested on: CCRF-CEM
Hs-578T = tested on: Hs-578T
COLO 205 = tested on: COLO 205
SNB-75 = tested on: SNB-75
KM12 = tested on: KM12
HCT-15 = tested on: HCT-15
MCF7 = tested on: MCF7
NCI-H23 = tested on: NCI-H23
MDA-MB-231 = tested on: MDA-MB-231
CAKI-1 = tested on: CAKI-1
ACHN = tested on: ACHN
K562 = tested on: K562
HCC 2998 = tested on: HCC 2998
T47D = tested on: T47D
EKVX = tested on: EKVX
RXF 393 = tested on: RXF 393
BT-549 = tested on: BT-549
SK-MEL-28 = tested on: SK-MEL-28
IGROV-1 = tested on: IGROV-1
NCI-H226 = tested on: NCI-H226
OVCAR-5 = tested on: OVCAR-5
SF-539 = tested on: SF-539
UO-31 = tested on: UO-31
OVCAR-4 = tested on: OVCAR-4
HCT-116 = tested on: HCT-116
U-251 = tested on: U-251
OVCAR-8 = tested on: OVCAR-8
DU-145 = tested on: DU-145
HOP-92 = tested on: HOP-92
HL-60 = tested on: HL-60
SF-268 = tested on: SF-268
SNB-19 = tested on: SNB-19
M14 = tested on: M14
HT-29 = tested on: HT-29
SK-MEL-2 = tested on: SK-MEL-2
SF-295 = tested on: SF-295
SK-MEL-5 = tested on: SK-MEL-5
NCI/ADR-RES = tested on: NCI/ADR-RES

## O=C(c1cc(Cl)cc(Cl)c1)N1CCN(C(=O)c2cc(Cl)cc(Cl)c2)C1=S
MDA-MB-435
  GI50: 11.7 µM (inactive)
SR
  GI50: 3.26 µM (inactive)
A498
  GI50: 15.5 µM (inactive)
LOX IMVI
  GI50: 3.31 µM (inactive)
NCI-H522
  GI50: 4.38 µM (inactive)
HOP-62
  GI50: 14.8 µM (inactive)
TK-10
  GI50: 10.7 µM (inactive)
SN12C
  GI50: 11.9 µM (inactive)
OVCAR-3
  GI50: 10.9 µM (inactive)
NCI-H460
  GI50: 16.6 µM (inactive)
SW-620
  GI50: 12.2 µM (inactive)
PC-3
  GI50: 13.9 µM (inactive)
Malme-3M
  GI50: 11.6 µM (inactive)
SK-OV-3
  GI50: 16.3 µM (inactive)
UACC-257
  GI50: 13.3 µM (inactive)
RPMI-8226
  GI50: 2.38 µM (inactive)
MOLT-4
  GI50: 3.94 µM (inactive)
UACC-62
  GI50: 9.91 µM (inactive)
MDA-N
  GI50: 14.1 µM (inactive)
A549
  GI50: 17.7 µM (inactive)
786-0
  GI50: 2.4 µM (inactive)
CCRF-CEM
  GI50: 2.25 µM (inactive)
Hs-578T
  GI50: 24.2 µM (inactive)
COLO 205
  GI50: 15.9 µM (inactive)
SNB-75
  GI50: 14.1 µM (inactive)
KM12
  GI50: 11.7 µM (inactive)
HCT-15
  GI50: 12.6 µM
MCF7
  GI50: 3.08 µM (inactive)
NCI-H23
  GI50: 17.4 µM (inactive)
MDA-MB-231
  GI50: 15.7 µM (inactive)
CAKI-1
  GI50: 11.9 µM (inactive)
ACHN
  GI50: 16 µM (inactive)
K562
  GI50: 8.39 µM (inactive)
HCC 2998
  GI50: 16.7 µM (inactive)
T47D
  GI50: 7.06 µM (inactive)
EKVX
  GI50: 16.8 µM (inactive)
RXF 393
  GI50: 11.8 µM (inactive)
BT-549
  GI50: 24.9 µM (inactive)
SK-MEL-28
  GI50: 23.2 µM (inactive)
IGROV-1
  GI50: 14.1 µM (inactive)
NCI-H226
  GI50: 23.7 µM (inactive)
OVCAR-5
  GI50: 20.6 µM (inactive)
SF-539
  GI50: 7.28 µM (inactive)
UO-31
  GI50: 2.31 µM (inactive)
OVCAR-4
  GI50: 19.1 µM (inactive)
HCT-116
  GI50: 16.4 µM (inactive)
U-251
  GI50: 13.1 µM (inactive)
OVCAR-8
  GI50: 18.6 µM (inactive)
DU-145
  GI50: 9.18 µM (inactive)
HOP-92
  GI50: 6.65 µM (inactive)
HL-60
  GI50: 3.31 µM (inactive)
SF-268
  GI50: 13.1 µM (inactive)
SNB-19
  GI50: 18.3 µM (inactive)
M14
  GI50: 13.2 µM (inactive)
HT-29
  GI50: 20.2 µM (inactive)
SK-MEL-2
  GI50: 16.8 µM (inactive)
SF-295
  GI50: 20.3 µM (inactive)
SK-MEL-5
  GI50: 16.1 µM (inactive)

## CC1=C(c2ccc(C)cc2)NC(=S)C(C)C(c2ccc(C)cc2)=N1 (stereo not given)
MDA-MB-435
  GI50: 72.9 µM (inactive)
SR
  GI50: > 10 µM (inactive)
A498
  GI50: 26 µM (inactive)
LOX IMVI
  GI50: 76.2 µM (inactive)
HOP-62
  GI50: 85.7 µM (inactive)
TK-10
  GI50: > 100 µM (inactive)
SN12C
  GI50: > 100 µM (inactive)
NCI-H460
  GI50: > 100 µM (inactive)
NCI/ADR-RES
  GI50: > 100 µM (inactive)
SW-620
  GI50: > 100 µM (inactive)
Malme-3M
  GI50: 59 µM (inactive)
SK-OV-3
  GI50: > 100 µM (inactive)
UACC-257
  GI50: 51.1 µM (inactive)
RPMI-8226
  GI50: 40.6 µM (inactive)
MOLT-4
  GI50: 32.8 µM (inactive)
UACC-62
  GI50: 89.7 µM (inactive)
MDA-N
  GI50: 83.9 µM (inactive)
A549
  GI50: 81.5 µM (inactive)
786-0
  GI50: > 100 µM (inactive)
CCRF-CEM
  GI50: 27.2 µM (inactive)
COLO 205
  GI50: > 100 µM (inactive)
SNB-75
  GI50: > 100 µM (inactive)
KM12
  GI50: 49.7 µM (inactive)
HCT-15
  GI50: 82.8 µM
MCF7
  GI50: 42 µM (inactive)
NCI-H23
  GI50: 37 µM (inactive)
MDA-MB-231
  GI50: > 100 µM (inactive)
CAKI-1
  GI50: > 100 µM (inactive)
ACHN
  GI50: 50.2 µM (inactive)
K562
  GI50: 35.8 µM (inactive)
HCC 2998
  GI50: 89.3 µM (inactive)
T47D
  GI50: 37.1 µM (inactive)
EKVX
  GI50: 56.6 µM (inactive)
RXF 393
  GI50: 14.7 µM (inactive)
BT-549
  GI50: 72.3 µM (inactive)
SK-MEL-28
  GI50: 47.1 µM (inactive)
IGROV-1
  GI50: > 100 µM (inactive)
NCI-H226
  GI50: > 100 µM (inactive)
OVCAR-5
  GI50: > 100 µM (inactive)
SF-539
  GI50: 92.5 µM (inactive)
UO-31
  GI50: 40.5 µM (inactive)
OVCAR-4
  GI50: > 100 µM (inactive)
HCT-116
  GI50: 58.5 µM (inactive)
U-251
  GI50: > 100 µM (inactive)
OVCAR-8
  GI50: > 100 µM (inactive)
DU-145
  GI50: > 100 µM (inactive)
HL-60
  GI50: 30.3 µM (inactive)
SF-268
  GI50: > 100 µM (inactive)
SNB-19
  GI50: > 100 µM (inactive)
HT-29
  GI50: 65.6 µM (inactive)
SF-295
  GI50: 67.6 µM (inactive)
SK-MEL-5
  GI50: 60 µM (inactive)
